Data published in ChEMBL document CHEMBL5120866, “Design and Synthesis of Novel Celastrol Derivatives as Potential Anticancer Agents against Gastric Cancer Cells” (J Nat Prod, 2022).
Active and inactive are the calls of the source. The rule behind the calls is not given here.

Columns and labels:
[1] = Toxicity in athymic BALB/c nude mouse assessed as effect on spleen at 1.5 mg/kg, ip measured after 21 days by H and E staining based histopathological analysis; assay type: organism-based; settings: in vivo, 504 h, time 21 day
[2] = test system: BGC-823; assay: Induction of apoptosis in human BGC-823 cells assessed as reduction in total number of cells at 0.15 to 0.6 uM incubated for 24 hrs by Hoechst 33342 staining based flourescence microscopy method; assay type: functional, cell-based; settings: dose 0.15-0.6 µM
[3] = Toxicity in athymic BALB/c nude mouse assessed as effect on kidney at 1.5 mg/kg, ip measured after 21 days by H and E staining based histopathological analysis; assay type: organism-based; settings: in vivo, 504 h, time 21 day
[4] = test system: BGC-823; assay: Induction of cell cycle arrest in human BGC-823 cells assessed as accumulation of cells at S phase at 0.6 uM incubated for 24 hrs by PI staining based flow cytometry method (reference value: 26.01%); assay type: functional
[5] = test system: BGC-823; assay: Antitumor activity against human BGC-823 cells xenografted in athymic BALB/c nude mouse assessed as increase in cell necrosis at 1.5 mg/kg, ip measured after 21 days by H and E staining based analysis; assay type: functional, organism-based; settings: time 21.0 day
[6] = test system: BGC-823; assay: Antiproliferative activity against human BGC-823 cells assessed as cell growth inhibition at 0.5 uM incubated for 48 hrs by MTT assay relative to control; assay type: functional
[7] = Toxicity in athymic BALB/c nude mouse assessed as change in body weight at 1.5 mg/kg, ip measured every 2 days for 21 days; assay type: organism-based; settings: in vivo, 504 h, time 21 day
[8] = test system: BGC-823; assay: Induction of apoptosis in human BGC-823 cells assessed as increase in cleaved-caspase 9 expression at 0.15 to 0.6 uM incubated for 24 hrs by Western blot analysis; assay type: functional, cell-based; settings: dose 0.15-0.6 µM
[9] = Toxicity in athymic BALB/c nude mouse assessed as effect on heart at 1.5 mg/kg, ip measured after 21 days by H and E staining based histopathological analysis; assay type: organism-based; settings: in vivo, 504 h, time 21 day
[10] = test system: BGC-823; assay: Antiproliferative activity against human BGC-823 cells assessed as cell growth inhibition incubated for 48 hrs by MTT assay; assay type: functional, cell-based; settings: BGC-823, 48 h
[11] = test system: BGC-823; assay: Induction of JNK phosphorylation in human BGC-823 cells at 0.15 to 0.6 uM incubated for 24 hrs by Western blot analysis; assay type: functional, cell-based; settings: dose 0.15-0.6 µM
[12] = test system: BGC-823; assay: Induction of cell cycle arrest in human BGC-823 cells assessed as accumulation of cells at S phase at 0.3 uM incubated for 24 hrs by PI staining based flow cytometry method (reference value: 26.01%); assay type: functional
[13] = test system: BGC-823; assay: Induction of ROS generation in human BGC-823 cells assessed as increase in intracellular ROS level incubated for 24 hrs by DCFH-DA staining based fluorescence microscopic analysis; assay type: functional, cell-based; settings: dose 0.3-0.6 µM, DDE = dose-dependent effect
[14] = test system: BGC-823; assay: Induction of apoptosis in human BGC-823 cells assessed as viable cells at 0.6 uM incubated for 24 hrs by annexin-V-FITC and PI staining based flow cytometry analysis (reference value: 96.3%); assay type: functional; settings: read-out: Activity
[15] = test system: BGC-823; assay: Upregulation of Bcl-2 family proteins in human BGC-823 cells at 0.15 to 0.6 uM incubated for 24 hrs by Western blot analysis; assay type: functional, cell-based; settings: dose 0.15-0.6 µM
[16] = test system: BGC-823; assay: Induction of apoptosis in human BGC-823 cells assessed as early apoptotic cells at 0.6 uM incubated for 24 hrs by annexin-V-FITC and PI staining based flow cytometry analysis (reference value: 2.4%); assay type: functional

IC50 [10]: 210 nM
Compound: CCOC(=O)c1cnn(CCCOC(=O)[C@]2(C)CC[C@]3(C)CC[C@]4(C)C5=CC=C6C(=CC(=O)C(O)=C6C)[C@]5(C)CC[C@@]4(C)[C@@H]3C2)c1
Activity [1]: Non-Toxic
Activity [2]: Active
Activity [3]: Non-Toxic
Activity [4]: 24.75%
Activity [5]: Active
inhibition at 0.5 µM [6]: > 50%
Activity [7]: Non-Toxic
Activity [8]: Active
Activity [9]: Non-Toxic
Activity [11]: Active
Activity [12]: 23.91%
Activity [13]: Dde
viability at 0.6 µM [14]: 50.9%
Activity [15]: Active
Activity [16]: 26%
